Results: US11458126B2, “DHODH inhibitor for use in treating hematologic cancers” (PTC THERAPEUTICS, INC., priority 2017, dated 2022)

Experiments:
[1] = tested on: de novo pyrimidine nucleotide synthesis in HT1080 cells; assay: 15N-glutamine tracing study: pyrimidine nucleotide synthesis metabolites by LC-MS/MS; type: cell-based, human
Description: HT1080 cells in log phase growth were seeded in 10 cm dishes (4×10^6 cells/dish) and cultured in regular DMEM supplemented with 10% fetal bovine serum (FBS), penicillin (50 IU/mL), and streptomycin (50 μg/mL). After overnight incubation, the culture medium was replenished with glutamine free DMEM containing 1 g/L glucose, 10% fetal bovine serum (FBS), penicillin (50 IU/mL), streptomycin (50 μg/mL) and 1 mM ^15N-glutamine (Sigma, Cat #: 490024). After culturing for the indicated time in the presence of compounds or vehicle control (0.5% DMSO), the cells were washed once with cold PBS (5 mL) and harvested and lysed in cold distilled H2O (0.5 mL) with −80° C. methanol (1 mL) using a plastic cell scraper. The cell lysates were then centrifuged at 10,000×g for 15 minutes at 4° C., and supernatant collected for LC-MS/MS analysis of the ^15N-labelled de novo pyrimidine synthesis metabolites.
LC-MS/MS Detection of Metabolites. Quantification of ^15N-labelled de novo pyrimidine synthesis metabolites was carried out on an Accela pump and a PAL auto-sampler coupled to a TSQ Quantum Ultra mass spectrometer. The mass spectrometer was equipped with a heated electrospray ionization source operated in negative-ion mode (Thermo Fisher Scientific, Waltham, Mass.). The ion spray voltage was set at 2500 V, capillary temperature at 350° C., vaporizer temperature at 300° C.; sheath gas pressure at 50 units and auxiliary gas pressure at 5 units. A Thermo Fisher Scientific Hypercab column (3μ, 50×2.1 mm) was used and maintained at 50° C. for metabolite separation. Mobile phase A was 10 mM NH4HCO3 in water, pH 9.4, and mobile phase B was 10 mM NH4HCO3 in ACN-water (9:1). The flow rate was set at 0.50 mL/min.

[2] = tested on: AML subject derived cell lines; assay: Proliferation of AML subject-derived cells (Celltiter Glo); type: cell-based, human; settings: 72 hours, five AML subject derived cell lines (FIG. 4e)
MOLM-13 AML cells = assay: MOLM-13 human acute myeloid leukemia xenograft model; type: in vivo; settings: nude mice, flank tumor; vehicle 7 days (FIG. 6)
Description: Human Xenograft Model: HT1080 or MOLM-13 tumor cells in log phase growth (5-10×10^6 cells/mouse, depending on cell lines) were implanted subcutaneously in male athymic nude mice. When the average tumor size reached the indicated size, mice were randomly divided into groups (10-15 mice/group) and administered vehicle or test compounds orally, once a day or twice per day as indicated. Tumor size was measured using calipers at periodic intervals during the study and tumor volume was calculated as L×W^2/2, in which L represents the longest and W is the shortest diameter of the tumors. At the end of the experiments, tumors were excised and homogenized on ice in Tris-HCl buffer containing a cocktail of proteinase inhibitors using a Powergen homogenizer fitted with Omni-Tip disposable/reusable probes (both from Fisher Scientific). Intratumoral levels of growth factors and proteins were measured using commercially available ELISA kits (R&D Systems). Protein concentrations of the homogenates were measured (Bio-Rad protein assay kit) and intratumoral growth factor levels normalized to the total protein concentration.

[3] = Blood-brain barrier penetration, whole-body autoradiography; type: in vivo; settings: evaluation, rats
DHODH [4] = assay: Serum DHO in NF2 clinical study subjects; type: in vivo, human; settings: three additional NF2 subjects (FIG. 3b)
prohibitin = assay: Pull-down with Cpd 1-linked Sepharose beads, Western blot (control protein); type: binding, human; settings: Western blot (FIG. 2a)
Description: Western Blot Analysis. Cells were treated with test compounds for 24 to 48 hours as indicated in the Results section. Subsequently, the conditioned medium was harvested by mixing with equal volume of 2×SDS-PAGE sample buffer (Bio-Rad). Whole-cell extracts were obtained by lysing cells either directly in 1×SDS-PAGE sample buffer (Bio-Rad) or in M-PER lysis buffer containing 150 mmol/L NaCl, 2 mmol/L EDTA and 1× Halt protease inhibitors (Pierce, Rockford, Ill.). Proteins in the samples were resolved on a Tris-glycine Criterion gel (Bio-Rad) and transferred onto a 0.45 μm nitrocellulose membrane. The membranes were then immunoblotted with specific antibodies indicated in the Results section. Antibody (C1) specific for VEGFA was purchased from Santa Cruz Biotechnologies, CA (1:200 dilution); Antibody specific for human β-actin was purchased from Abcam (1:10000 dilution); Antibody specific for V5-tag was purchased from Invitrogen (1:5000 dilution). Antibody specific for DHODH was purchased from Proteintech (Cat #: 14877-1-AP, 1:500 dilution); and antibody specific for human prohibitin was purchased from Thermo Scientific (Cat #: PA5-12274 and PA5-14133, 1:1000 dilution). […] The expression levels of proteins were detected with Odyssey (LI-COR) or using enhanced chemiluminescence (Pierce, Rockford, Ill.). […]

[5] = subjects with solid tumors [24]; cited from earlier work
DHODH [6] = biological target: DHODH (Homo sapiens, UniProt Q02127); assay: Pull-down with Cpd 1-linked Sepharose beads, Western blot; type: binding; set-up: 1 mL of cell lysate solution (2 mg/mL protein) was added to each reaction tube; endogenous in cells
Chain of DHODH (Homo sapiens, UniProt Q02127) (Q02127 whole entry): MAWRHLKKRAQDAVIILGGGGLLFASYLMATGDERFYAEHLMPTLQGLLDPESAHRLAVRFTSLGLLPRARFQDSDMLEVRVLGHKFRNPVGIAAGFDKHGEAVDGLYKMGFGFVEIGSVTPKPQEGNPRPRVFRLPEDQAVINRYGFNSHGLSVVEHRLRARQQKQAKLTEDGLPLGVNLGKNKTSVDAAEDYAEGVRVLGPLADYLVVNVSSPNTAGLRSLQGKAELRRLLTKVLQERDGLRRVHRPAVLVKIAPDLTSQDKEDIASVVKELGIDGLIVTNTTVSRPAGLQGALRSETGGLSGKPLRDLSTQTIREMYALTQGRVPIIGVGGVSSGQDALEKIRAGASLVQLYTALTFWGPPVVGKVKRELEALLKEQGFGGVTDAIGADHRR
Text: Western Blot Analysis. […] Subsequently, the conditioned medium was harvested by mixing with equal volume of 2×SDS-PAGE sample buffer (Bio-Rad). […] Proteins in the samples were resolved on a Tris-glycine Criterion gel (Bio-Rad) and transferred onto a 0.45 μm nitrocellulose membrane. […] Antibody (C1) specific for VEGFA was purchased from Santa Cruz Biotechnologies, CA (1:200 dilution); Antibody specific for human β-actin was purchased from Abcam (1:10000 dilution); Antibody specific for V5-tag was purchased from Invitrogen (1:5000 dilution). […] Immunodetection was done using the corresponding secondary antibodies conjugated with infrared dyes or horseradish peroxide. The expression levels of proteins were detected with Odyssey (LI-COR) or using enhanced chemiluminescence (Pierce, Rockford, Ill.).
The wet Sepharose 6B was diluted with pH 11 phosphate/NaOH buffer (5 mL). […] The reaction mixture was stirred further 24 hours at 40° C.
Cells in log phase growth were washed with cold PBS once and then collected by trypsin digestion. […] Proteins in the eluted samples were identified via LC-MS/MS or western blot analysis.

[7] = cells treated 100 nm for 8 hours in presence of 15N-glutamine, BLDL = Below Detection Limits

## COc1ccc([C@H]2c3[nH]c4ccc(Cl)cc4c3CCN2C(=O)Oc2ccc(Cl)cc2)cc1 [Cpd 1, 4-chlorophenyl (S)-6-chloro-1-(4-methoxyphenyl)-1,3,4,9-tetrahydro-2H-pyrido[3,4-b]indole-2-carboxylate]
[1]; HT1080 cells, LCMS (FIG. 1b)
  de novo pyrimidine synthesis (15N-labelled CTP, UTP and UMP): inhibits de novo pyrimidine synthesis
[1]; cells treated 100 nm for 8 hours in presence of 15N-glutamine
  ^15N-Orotate: 44.8 ± 6.1 µM
[1]; [7]
  ^15N-DHO: 18.1 ± 5.5 µM
  ^15N-UMP: BLDL
[1]; co-treatment with pyrazofurin-MP, HT1080 cells (FIG. 1c)
  pyrazofurin-MP-induced increase of 15N-orotate: blocked
[2]
  inhibition of proliferation: inhibition of proliferation in all five AML subject derived cell lines tested
MOLM-13 AML cells
  median time to reach a tumor volume of 1000 mm^3: 23 days
[3]
  blood-brain barrier penetration: penetrates the blood-brain barrier
DHODH [4]
  serum DHO: increased serum DHO
prohibitin
  binding of prohibitin to Cpd 1-linked beads after preincubation with free compound: not blocked
[5]
  myeloid suppression: did not show myeloid suppression
DHODH [6]; Competing Off (FIG. 2b)
  competitive elution of DHODH from Cpd 1 beads by free compound: selectively eluted
DHODH [6]; Competing On, Western blot (FIG. 2a)
  binding of DHODH to Cpd 1-linked beads after preincubation with free compound: inhibited
